Data published in PubChem BioAssay AID1259411 (Chemical Carcinogenesis Research Information System (CCRIS), 2018).
The source made the active and inactive calls. How the calls were made is not given here.

Tested on: rodent carcinogenicity bioassays, tumor incidence
Assay: CCRIS carcinogenicity studies
Conditions: Dose: 0, Dose: 0
How it was run: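 NCI-built, expert-reviewed records of carcinogenicity and related test outcomes (mutagenicity, tumor promotion/inhibition) compiled from published and report sources, historical span 1985-2011, not updated.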

Structure (SMILES): CC1(C)S[C@@H]2[C@H](NC(=O)COc3ccccc3)C(=O)N2[C@H]1C(=O)O
- carcinogen call (Species: MOUSE, Strain/Sex: B6C3F1/FEMALE, Route: GAVAGE, 500, 1000 MG/KG IN CORN OIL 5 D/WK FOR 103-104 WK (STUDY DURATION: 106 WK), 500, 1000 MG/KG IN CORN OIL 5 D/WK FOR 103-104 WK (STUDY DURATION: 106 WK)): inactive; negative
- carcinogen call (Species: MOUSE, Strain/Sex: B6C3F1/FEMALE, Route: GAVAGE, 500, 1000 MG/KG IN CORN OIL 5D/WK FOR 104 WK, 500, 1000 MG/KG IN CORN OIL 5D/WK FOR 104 WK): inactive; negative
- carcinogen call (Species: MOUSE, Strain/Sex: B6C3F1/MALE, Route: GAVAGE, 500, 1000 MG/KG IN CORN OIL 5 D/WK FOR 103-104 WK (STUDY DURATION: 106 WK), 500, 1000 MG/KG IN CORN OIL 5 D/WK FOR 103-104 WK (STUDY DURATION: 106 WK)): inactive; negative
- carcinogen call (Species: MOUSE, Strain/Sex: B6C3F1/MALE, Route: GAVAGE, 500, 1000 MG/KG IN CORN OIL 5D/WK FOR 104 WK, 500, 1000 MG/KG IN CORN OIL 5D/WK FOR 104 WK): inactive; negative
- carcinogen call (Species: RAT, Strain/Sex: F344/FEMALE, Route: GAVAGE, 500, 1000 MG/KG IN CORN OIL 5 D/WK FOR 103-104 WK (STUDY DURATION: 106 WK), 500, 1000 MG/KG IN CORN OIL 5 D/WK FOR 103-104 WK (STUDY DURATION: 106 WK)): inactive; negative
- carcinogen call (Species: RAT, Strain/Sex: F344/FEMALE, Route: GAVAGE, 500, 1000 MG/KG IN CORN OIL 5D/WK FOR 103 WK (STUDY DURATION: 104 WK), 500, 1000 MG/KG IN CORN OIL 5D/WK FOR 103 WK (STUDY DURATION: 104 WK)): inactive; negative
- carcinogen call (Species: RAT, Strain/Sex: F344/MALE, Route: GAVAGE, 500, 1000 MG/KG IN CORN OIL 5 D/WK FOR 103-104 WK (STUDY DURATION: 106 WK), 500, 1000 MG/KG IN CORN OIL 5 D/WK FOR 103-104 WK (STUDY DURATION: 106 WK)): inactive; negative
- carcinogen call (Species: RAT, Strain/Sex: F344/MALE, Route: GAVAGE, 500, 1000 MG/KG IN CORN OIL 5D/WK FOR 103 WK (STUDY DURATION: 104 WK), 500, 1000 MG/KG IN CORN OIL 5D/WK FOR 103 WK (STUDY DURATION: 104 WK)): inactive; negative

Structure (SMILES): C[C@H]1[C@H](c2ccc(Cl)cc2)SC(=O)N1C(=O)NC1CCCCC1
- carcinogen call (Species: Rat, Strain/Sex: Fischer 344/Female (70/Group), Route: Oral, 60, 430, 3000 ppm in diet for 24 mo, study duration 24 mo, 60, 430, 3000 ppm in diet for 24 mo, study duration 24 mo): inactive; negative
- carcinogen call (Species: Rat, Strain/Sex: Fischer 344/Male (70/Group), Route: Oral, 60, 430, 3000 ppm in diet for 24 mo, study duration 24 mo, 60, 430, 3000 ppm in diet for 24 mo, study duration 24 mo, Tumor Site: Type of Lesion: Mammary gland: fibroadenoma (0, 1, 2, 6)): active; positive. (department of pesticides regulation reviewer describes as possible ad

Structure (SMILES): COC(=O)c1ccc(C(=O)OC)cc1
- carcinogen call (Species: MOUSE, Strain/Sex: B6C3F1/FEMALE, Route: ORAL, 2500, 5000 PPM IN DIET FOR 103 WK (STUDY DURATION: 104-105 WK), 2500, 5000 PPM IN DIET FOR 103 WK (STUDY DURATION: 104-105 WK)): inactive; negative
- carcinogen call (Species: MOUSE, Strain/Sex: B6C3F1/MALE, Route: ORAL, 2500, 5000 PPM IN DIET FOR 103 WK (STUDY DURATION: 104-105 WK), 2500, 5000 PPM IN DIET FOR 103 WK (STUDY DURATION: 104-105 WK), Tumor Site: Type of Lesion: LUNG: ALVEOLAR/BRONCHIOLAR ADENOMA OR CARCINOMA): equivocal
- carcinogen call (Species: RAT, Strain/Sex: F344/FEMALE, Route: ORAL, 2500, 5000 PPM IN DIET FOR 103 WK (STUDY DURATION: 105-106 WK), 2500, 5000 PPM IN DIET FOR 103 WK (STUDY DURATION: 105-106 WK)): inactive; negative
- carcinogen call (Species: RAT, Strain/Sex: F344/MALE, Route: ORAL, 2500, 5000 PPM IN DIET FOR 103 WK (STUDY DURATION: 105-106 WK), 2500, 5000 PPM IN DIET FOR 103 WK (STUDY DURATION: 105-106 WK)): inactive; negative

Structure (SMILES): Cl[C@@H]1C2(Cl)C3C4[C@@H]5O[C@@H]5[C@H]5C3[C@@](Cl)(C2(Cl)Cl)[C@]1(Cl)[C@@H]45 (stereo not given in full)
- carcinogen call (Species: MOUSE, Strain/Sex: B6C3F1/FEMALE, Route: ORAL, 0.32, 0.64 PPM IN DIET, 0.32, 0.64 PPM IN DIET): inactive; negative
- carcinogen call (Species: MOUSE, Strain/Sex: B6C3F1/MALE, Route: ORAL, 0.32, 0.64 PPM IN DIET, 0.32, 0.64 PPM IN DIET): inactive; negative
- carcinogen call (Species: RAT, Strain/Sex: OSBORNE-MENDEL/FEMALE, Route: ORAL, 3.4, 7.5 PPM IN DIET, TWA, 3.4, 7.5 PPM IN DIET, TWA): inactive; negative
- carcinogen call (Species: RAT, Strain/Sex: OSBORNE-MENDEL/MALE, Route: ORAL, 5, 10 PPM IN DIET, 5, 10 PPM IN DIET): inactive; negative

Structure (SMILES): COP(=O)(OC)OC(=CCl)c1cc(Cl)c(Cl)cc1Cl
- carcinogen call (Species: MOUSE, Strain/Sex: B6C3F1/MALE, Route: ORAL, 8000, 16000 PPM IN DIET, 8000, 16000 PPM IN DIET, Tumor Site: Type of Lesion: LIVER: NEOPLASTIC NODULE OR HEPATOCELLULAR CARCINOMA): active; positive
- carcinogen call (Species: RAT, Strain/Sex: OSBORNE-MENDEL/MALE, Route: ORAL, 4250, 8500 PPM IN DIET, TWA, 4250, 8500 PPM IN DIET, TWA): inactive; negative
